Literature values, collected in patent US20040167415A1, “Method and system for prevention of radiocontrast nephropathy” (PLC Systems Inc., priority 2003, published 2004).

Assays:
[1] = 70 kg adult patient; according to the manufacturer Nycomed Amersham
[2] = in 12 hours; healthy people; Edelson et al, J Pharm Sci 1984

SMILES: CC(=O)N(CC(O)CO)c1c(I)c(C(=O)NCC(O)CO)c(I)c(C(=O)NCC(O)CO)c1I (centres unmarked) [iohexol]
- total volume of distribution [1]: approximately 18 liters
- contrast eliminated from the body in urine by kidneys [2]: 90%
